Data on one compound can be found in patent US5905073A, “Use of 2-hydroxy-5-phenylazobenzoic acid derivatives as colon cancer chemopreventative and chemotherapeutic agents” (priority 1996, dated 1999).

In one series the test system is HT-29 cells. Description: Proliferation of HT-29 colon cancer cells, Coulter Counter cell count. The series is classed as cell-based, human. The protocol: (§1) Cells were grown in Dulbeccos Modified Eagle medium supplemented with 10% calf serum in an atmosphere of 5% CO2 at 37° C. For growth experiments, cells were seeded into 24-well tissue culture dishes (2 cm^2 /well) at a density of 20,000 cells/well and allowed to attach for 12 hours. The growth medium was then changed and replaced with fresh media containing the test drugs.
(§2) The test drugs were dissolved in tissue culture media at the desired concentration and added to individual wells. To determine the number of cells per well, media was removed and the cells washed with phosphate buffered saline solution. The cells were then incubated 15 minutes with trypsin-EDTA solution until detached. The detached cells were then removed from the wells and counted using a Coulter Counter (Model ZBI).
(§3) The cell numbers shown in Table I are the average of triplicate culture wells.

For a further series, the system named is LS174T cells. Kind of series: Proliferation of LS174T colon cancer cells, Coulter Counter cell count. Format: cell-based, human. The protocol:
as §1, §2, §3

The conditions of series [1]: cited from earlier work.
Series [2] concerns aberrant crypts induced by azoxymethane (AOM). Description: Inhibition of azoxymethane-induced aberrant crypt formation (induction study). Format: in vivo, rat (F344). The note with it: in drinking water, distal 7-8 cm of colon. The source says:
Aberrant crypts were originally described in carcinogen-induced colonic mucosa as crypts of "increased size, thicker epithelial lining and increased pericryptal zones" (Bird et al. (1989) Cancer Surv. 8:189-200). […] The anti-tumor activity of several of these agents has been confirmed in longer term AOM animal studies. The aberrant crypt model is, therefore, an ideal in vivo assay for efficacy of balsalazide and metabolites.
Inhibition of Aberrant Crypt Induction.
Four groups of 5 male F344 rats were used. Animals were 6-8 weeks of age at the start of dosing with a starting weight range within +/-20% of the overall mean. The expected response to AOM treatment from published studies is the formation of 100-140 aberrant crypts per animal (Wargovich et al. (1992) J. Cell. Biochem. 16G:51-54). […]
Body weights were recorded twice weekly, and water consumed by each cage of animals measured twice weekly. Consumption is calculated as average ml/animal/cage.
For aberrant crypt analysis, animals were sacrificed under CO2 euthanasia at the end of either three weeks or five weeks of dosing. […] After a saline rinse, the number of foci of aberrant crypts was scored by counting under a microscope at 40-100× magnification. The length of the colonic tissue was also measured. […]

The conditions of series [3]: rat; cited from earlier work.
The test system of a further series is colonic inflammation. The settings on record: several animal models of colonic inflammation; cited from earlier work.
Series [4] deals with aberrant crypt foci induced by azoxymethane (AOM). Description: Inhibition of aberrant crypt progression / multiplicity, treatment started 24 hours after second AOM injection. Format: in vivo, rat. The source says: Inhibition of Aberrant Crypt Progression. The data shown in FIG. 4 were collected from the distal 7-8 cm of colonic tissue. At these early time points, this area contained over 80% of the total aberrant crypt foci. An additional study was therefore designed to examine a longer time point, assess the distribution throughout the entire 25 cm of colon and determine if the drug treatment could be initiated after the second AOM injection.
In the second study, groups of 8 animals received two injections of azoxymethane one week apart. Balsalazide treatment was then initiated with one group 24 hours following the second injection. Six weeks later the animals were processed for aberrant crypt analysis. Crypts were stained in situ by rectal instillation of a 0.2% solution of methylene blue for 15 min under anesthesia. Animals were then exsanguinated, colonic tissue from the anus to the caecum was excised, cleaned and fixed for 2 hours in 2% paraformaldehyde. Crypts were counted by viewing at a magnification of 40×. In addition to collecting data on the number of foci, data was also collected on the multiplicity of aberrant crypts per foci.
Previous studies by Pretlow et al (Pretlow et al. (1992) Carcinogenesis 13:1509-1512) have reported on the relationship between aberrant crypt multiplicity and ultimate tumor development using the same carcinogenesis model. […] The data from the above experiment was analyzed to determine the effect of balsalazide on the aberrant crypt multiplicity. […] For foci with 1-3 crypts the mean inhibition ranged from 57-61% (p<0.003, Fischer exact test) while the number of foci with 4 or more crypts was reduced by a mean of 72-76% (p<0.001). When the results on the number of foci containing 4 or more crypts are compared with those containing 3 or less the difference remains statistically significant at the p<0.022 level using the Fischer exact test.

For series [5] the following is noted: cited from earlier work. The source holds these as a separate data set.
Setting [6] is: 6 weeks after second AOM injection, 8 animals.

In the case of `O=C(O)CCNC(=O)c1ccc(/N=N/c2ccc(O)c(C(=O)O)c2)cc1` [Balsalazide], in the series with HT-29 cells (HT-29, 10 mM, average of triplicate wells), the “Cell No. on Day 10” value is 47500. Further, the activity at 10000 µM in the series with HT-29 cells (Homo sapiens, HT-29, 240 h, read-out: % of Control Cells) was 3.6%. Further, the “Cell No. on Day 10” value in the series with LS174T cells (10 mM, average of triplicate wells) is listed as 24925. The activity at 10000 µM in the series with LS174T cells (Homo sapiens, 240 h, read-out: % of Control Cells) is 3.51%. In addition, in series [1] (human, in vivo), the “gastric or duodenal ulceration” value was “no evidence of gastric or duodenal ulceration” and the gastrointestinal tolerance entry is on record as “excellent gastrointestinal tolerance”. Also, the nephrotoxicity entry in series [1] (over 500 patients, some for as long as three years) is “no evidence of nephrotoxicity”. Also, the “inhibition in the average number of aberrant crypts” value in series [2] (week 1) stood at 61.8%. In addition, the “inhibition in the average number of aberrant crypts” value in series [2] (week five) worked out at 58.1%. Further, the maximum tolerated dose in series [3] is on record as > 12,000 mg/kg/day. For the same compound, in the series on colonic inflammation, the “anti-inflammatory activity in animal models” value is recorded as “possesses anti-inflammatory activity”. Further, in series [4] (setting [6]), the “mean number of foci, Total” value was found to be 63.75; the “mean number of foci, multiplicity 1” value is listed as 10.3; the “mean number of foci, multiplicity 2” value is given as 19.1; the “mean number of foci, multiplicity 3” value is 15.3. For the same compound, in series [4] (setting [6]), the “mean number of foci, multiplicity 4” value was determined as 8.5 and the “mean number of foci, multiplicity 5 to 8” value turned out to be 9.6. In series [4] (given beginning 24 hours following second AOM injection, 6 weeks), the “inhibition of aberrant crypt foci overall” value was “approximately 60%”. Also, the “mean reduction of number of foci with 4 or more crypts” value in series [4] (p<0.001) is given as 72-76%. The “mean inhibition of foci with 1-3 crypts” value in series [4] (p<0.003, Fischer exact test) is given as 57-61%. Also, the “reduction of foci with the greatest number of aberrant crypts relative to foci containing 2-3” value in series [4] (rat, in vivo) is listed as “almost twice”. For the same compound, the absorption result in series [5] (oral balsalazide) is “virtually unabsorbed through the upper GI tract”. The “drug reaching the colon intact” value in series [5] (oral) is listed as 99%.
